Measurements from ChEMBL document CHEMBL3832068, “DailyMed|setid=9ddd37f9-299e-4c98-91ed-deeb72c63b00 | GRIS-PEG - griseofulvin tablet, film coated|State of Florida DOH Central Pharmacy”.

Key:
[1] = system: Homo sapiens; assay: (§1) Mean pharmacokinetic parameters for Griseofulvin following single dose administration of unaltered 250 mg ultramicrocrystalline Griseofulvin tablets, with or without applesauce, to 24 healthy volunteers; format: ADME, organism-based; set-up: dose 250 mg, route oral; settings: in vivo, po, dietary status Fasting, dosed compound id 34, dosed compound name GRISEOFULVIN, gender male and female, regimen Single dose, tissue Plasma
[2] = as §1; format: ADME, organism-based; set-up: dose 250 mg, route oral; settings: human, in vivo, dietary status Fasting, dosed compound id 34, dosed compound name GRISEOFULVIN, gender male and female, regimen Single dose, tissue Plasma

**Q.** Which Tmax ([1]; dose 250 mg) does the source give for `COC1=CC(=O)C[C@@H](C)[C@]12Oc1c(Cl)c(OC)cc(OC)c1C2=O` [GRISEOFULVIN] here?
**A.** 3.08 h

**Q.** And the AUC [1]?
**A.** 9023.71 ng·h/mL

**Q.** What about the Cmax [1] of the same compound?
**A.** 672.61 ng/mL

**Q.** What about the AUC ([2]; po, 250 mg) of the same compound?
**A.** 8620 ng·h/mL

**Q.** What about the Cmax ([2]; po, 250 mg) of the same compound?
**A.** 601 ng/mL

**Q.** And the Tmax ([2]; dose 250 mg, route oral)?
**A.** 4.04 h
